From patent US5250673A, “2'-deoxy-5-substituted uridine derivatives” (priority 1983, dated 1993)
Read-outs that look alike come from different tables or passages of the source.

How the values were obtained:
Sarcoma 180 [1] = experiment: antitumor activity: 50% inhibition of tumor enhancement, Sarcoma 180 transplanted in mice; assay type: in vivo, mouse; settings: oral, once a day, 7 days, male ICR/JCL mice, tumor weight day 10
Protocol: (a) Method for determining of antitumor activity value
5×10^6 Cells of mouse-transplantable tumor Sarcoma 180 were transplanted to each male ICR/JCL-strain mouse (having a weight of 27 to 30 g) subcutaneously at the back. Each test compound dissolved or suspended in 0.1% Tween 80^(*) - 0.5% CMC solution was orally administered to various test groups each consisting of 7 mice once a day for 7 consecutive days from the next day of tumor transplanting, in an amount of 1.0 ml of solution or suspension per 100 g weight per day. As to a control group, the same Tween 80-CMC solution containing no test compound was orally administered once a day for 7 consecutive days in an amount of 1.0 ml per 100 g weight per day. (*) (A trademark for a series of surface which is a polyoxyethylene derivative of fatty acid partial ester of sorbitol anhydride, manufactured by I.C.I. U.S., Inc.)
On the tenth day from the tumor transplanting, an average tumor weight for each administration level of each test compound was determined. This weight was compared with an average tumor weight in control group, and the ratio of tumor enhancement inhibition at each administration level of each test compound compared with control group was calculated. From these calculations, the administration level of each test compound at which the ratio of tumor enhancement inhibition become 50% was obtained and the level (amount) was taken as the antitumor activity value of each compound.

[2] = toxicity value: 50% inhibition of weight increase of test animal (Sarcoma 180 tumor-transplanted mice); assay type: in vivo, mouse; settings: oral, once a day, 7 days, male ICR/JCL mice; for TD50 at 240 h: mouse, sarcoma 180 bearing mice, read-out: Toxicity value (B) Administration amount of test compound at which weight increase of test animal is inhibited by 50% compared with that of control group
Protocol: (b) Method for determining toxicity value
Hitherto, toxicity values of anti-malignant tumor agents have been calculated on the bases of LD50 of test animals, in most cases. […] Therefore, in the present test, accumulated toxicity, which well represents the toxicity of anti-malignant tumor agents, was focused on and, as an indication for sensitive detection of the accumulated toxicity, inhibition of weight increase of test animal was measured. That is, when antitumor activity value was determined in the above item (a), the weight of each mouse of each test groups for each test compounds was measured daily from the day of tumor transplanting, immediately before administration.
On the day of tumor weight measurement, the average net weight increase of each mouse of each test groups for each test compounds from the day of tumor transplanting was measured. These increases were compared with the average net weight increase of control group and the ratio of net weight increase of each test groups of each test compounds to that of control group was calculated. From these calculations, there was obtained an addition amount of each test compound at which weight increase is inhibited by 50% compared with that of control group, and that amount was taken as a toxicity value of each compound.

[3] = reported in literature; cited from earlier work
Sarcoma 180 [4] = experiment: calculation of therapeutic index (B)/(A), Sarcoma 180 mice; assay type: in vivo, mouse; parameters: key: C = toxicity value (B) / antitumor activity value (A); settings: Table 1-c; oral, once a day, 7 days
Protocol: (c) Calculation of therapeutic index
By the use of the antitumor activity value (hereinafter referred to as A) and the toxicity value (hereinafter referred to as B) of each compound, which were obtained in the above items (a) and (b), respectively, therapeutic index (hereinafter referred to as C) was calculated in accordance with the following equation.
Therapeutic index (C)=^(B)(A)

[5] = relative to 5-FU; cited from earlier work
[6] = compared with 5-FU; cited from earlier work
nucleosidephosphorylase = settings: administered in vivo; cited from earlier work
[7] = in vivo; cited from earlier work
[8] = compared with 5-FU; cited from earlier work; remark: listed apart in the source
[9] = administration limited to intraarterial injection; cited from earlier work

| Compound | Antitumor activity value (A) Administration amount of test compound at which tumor enhancement is inhibited by 50% compared with that of control group (Sarcoma 180 [1]; Table 1-a) | Antitumor activity value (A) Administration amount of test compound at which tumor enhancement is inhibited by 50% compared with that of control group (Sarcoma 180 [1]; Table 1-b) | Toxicity value (B) Administration amount of test compound at which weight increase of test animal is inhibited by 50% compared with that of control group ([2]; Table 1-a, 14400 min) | TD50 at 240 h ([2]; Table 1-b) | antitumor activity [3] | Antitumor activity value (A) Administration amount of test compound at which tumor enhancement is inhibited by 50% compared with that of control group (Sarcoma 180 [1]; Table 1-c) | TD50 at 240 h ([2]; Table 1-c) | Therapeutic index (C) = (B)/(A) (Sarcoma 180 [4]) | carcinostatic activity in vitro [5] | conversion in vivo into active form [6] | decomposition into 5-FU by nucleosidephosphorylase (nucleosidephosphorylase) | excretion [7] | prolonged action in blood [7] | carcinostatic effect [8] | toxicity as a medicine [9] |
| --- | --- | --- | --- | --- | --- | --- | --- | --- | --- | --- | --- | --- | --- | --- | --- |
| O=c1[nH]c(=O)n([C@H]2C[C@H](O)[C@@H](CO)O2)cc1C(F)(F)F [F3 TdR, 2'-Deoxy-5-trifluoromethyl uridine, reference compound] | 68 mg/kg/day | 58 mg/kg/day | 49 mg/kg/day | 40 mg/kg | has an antitumor activity | – | – | – | – | – | – | – | – | – | – |
| O=c1[nH]c(=O)n([C@H]2C[C@H](O)[C@@H](CO)O2)cc1F [FudR, 2'-deoxy-5-fluorouridine] | – | – | – | – | – | 93 mg/kg/day | 71 mg/kg | 0.76 | about 100 times that of 5-fluorouracil | more easily than 5-FU | easily decomposed into 5-FU by nucleosidephosphorylase | excreted very quickly | poor prolonged action in blood | inferior to 5-FU in carcinostatic effect | very toxic |
